For experiment [1], the system named is Puccinia recondita f. Sp. Tritici. Put plainly: Puccinia recondita f. sp. tritici / wheat / leaf disc preventative (brown rust). To be noted: foliar, 200 ppm in the applied formulation, inoculated 1 day after application, assessed 7 to 9 days after application, vs untreated control leaf disks, read-out: disease control. Type of experiment: in vivo, Puccinia recondita f. sp. tritici on wheat cv. Kanzler. On the procedure:
Leaf disks or leaf segments of various plant species are cut from plants grown in a greenhouse. The cut leaf disks or segments are placed in multiwell plates (24-well format) onto water agar. The leaf disks are sprayed with a test solution before (preventative) or after (curative) inoculation. Compounds to be tested are prepared as DMSO solutions (max. 10 mg/ml) which are diluted to the appropriate concentration with 0.025% Tween20 just before spraying. The inoculated leaf disks or segments are incubated under defined conditions (temperature, relative humidity, light, etc.) according to the respective test system. A single evaluation of disease level is carried out 3 to 14 days after inoculation, depending on the pathosystem. Percent disease control relative to the untreated check leaf disks or segments is then calculated. Wheat leaf segments cv. Kanzler were placed on agar in multiwell plates (24-well format) and sprayed with the formulated test compound diluted in water. The leaf disks were inoculated with a spore suspension of the fungus 1 day after application. The inoculated leaf segments were incubated at 19′C and 75% relative humidity (rh) under a light regime of 12 hours light/12 hours darkness in a climate cabinet and the activity of a compound was assessed as percent disease control compared to untreated when an appropriate level of disease damage appears in untreated check leaf segments (7 to 9 days after application). The following compounds at 200 ppm in the applied formulation give at least 80% disease control in this test when compared to untreated control leaf disks under the same conditions, which show extensive disease development.

Experiment [2] deals with Glomerella Lacenarium (Colletotrichum lacenarium). Put plainly: Glomerella lagenarium (Colletotrichum lagenarium) liquid culture / cucumber / preventative (anthracnose). It counts as cell-based. To be noted: 20 ppm in the applied formulation, liquid culture in PDB, 24° C., inhibition of growth measured photometrically 3 to 4 days after application, vs untreated control, read-out: disease control. On the procedure: Mycelia fragments or conidia suspensions of a fungus prepared either freshly from liquid cultures of the fungus or from cryogenic storage, are directly mixed into nutrient broth. DMSO solutions of the test compound (max. 10 mg/ml) are diluted with 0.025% Tween20 by a factor of 50 and 10 μl of this solution is pipetted into a microtiter plate (96-well format). The nutrient broth containing the fungal spores/mycelia fragments is then added to give an end concentration of the tested compound. The test plates are incubated in the dark at 24° C. and 96% relative humidity. The inhibition of fungal growth is determined photometrically after 2 to 7 days, depending on the pathosystem, and percent antifungal activity relative to the untreated check is calculated.
Conidia of the fungus from cryogenic storage are directly mixed into nutrient broth (PDB—potato dextrose broth). After placing a (DMSO) solution of test compound into a microtiter plate (96-well format), the nutrient broth containing the fungal spores is added. The test plates are incubated at 24° C. and the inhibition of growth is measured photometrically 3 to 4 days after application.
The following compounds at 20 ppm in the applied formulation give at least 80% disease control in this test when compared to untreated control under the same conditions, which show extensive disease development.

`O=C(NCc1ccc(-c2noc(C(F)(F)F)n2)cc1F)c1ccccc1Cl` [Compound 1.48, 2-chloro-N-[[2-fluoro-4-[5-(trifluoromethyl)-1,2,4-oxadiazol-3-yl]phenyl]methyl]benzamide]: the pest or weed control at 200 ppm in experiment [1] is at least 80%. In addition, in experiment [2], the inhibition of growth at 20 ppm is at least 80%. In the case of `COc1cc(-c2noc(C(F)(F)F)n2)ccc1CNC(=O)C1CCCO1` (centres unmarked) [Compound 1.51, N-[[2-methoxy-4-[5-(trifluoromethyl)-1,2,4-oxadiazol-3-yl]phenyl]methyl]tetrahydrofuran-2-carboxamide], in experiment [2], the inhibition of growth at 20 ppm is at least 80%.

Take `O=C(NCc1ccc(-c2noc(C(F)(F)F)n2)cc1)c1ccccc1C(F)(F)F` [Compound 1.43, 2-(trifluoromethyl)-N-[[4-[5-(trifluoromethyl)-1,2,4-oxadiazol-3-yl]phenyl]methyl]benzamide]: the pest or weed control at 200 ppm in experiment [1] is at least 80%. On to `O=C(CC1CC1)NCc1ccc(-c2noc(C(F)(F)F)n2)cc1Cl` [Compound 1.74, N-[[2-chloro-4-[5-(trifluoromethyl)-1,2,4-oxadiazol-3-yl]phenyl]methyl]-2-cyclopropyl-acetamide], for which the inhibition of growth at 20 ppm in experiment [2] is at least 80%. On to `O=C(NCc1ccc(-c2noc(C(F)(F)F)n2)cc1Cl)C1CCOC1` (centres unmarked) [Compound 1.82, N-[[2-chloro-4-[5-(trifluoromethyl)-1,2,4-oxadiazol-3-yl]phenyl]methyl] tetrahydrofuran-3-carboxamide], for which the inhibition of growth at 20 ppm in experiment [2] was at least 80%. Regarding `COc1ccc(C2(C(=O)NCc3ccc(-c4noc(C(F)(F)F)n4)cc3)CC2)cc1` [Compound 1.38, 1-(4-methoxyphenyl)-N-[[4-[5-(trifluoromethyl)-1,2,4-oxadiazol-3-yl]phenyl]methyl] cyclopropanecarboxamide], in experiment [1], the pest or weed control at 200 ppm is at least 80%. Moreover, the inhibition of growth at 20 ppm in experiment [2] was at least 80%. On to `O=C(NCc1ccc(-c2noc(C(F)(F)F)n2)cc1Cl)C1CC1` [Compound 1.81, N-[[2-chloro-4-[5-(trifluoromethyl)-1,2,4-oxadiazol-3-yl]phenyl]methyl] cyclopropanecarboxamide], for which the inhibition of growth at 20 ppm in experiment [2] is at least 80%. The same measure, in the same setting: the figure for `O=C(NCc1ccc(-c2noc(C(F)(F)F)n2)cc1C(F)(F)F)C1CCCO1` (centres unmarked) [Compound 1.52, N-[[2-(trifluoromethyl)-4-[5-(trifluoromethyl)-1,2,4-oxadiazol-3-yl]phenyl]methyl]tetrahydrofuran-2-carboxamide] is at least 80%; for `CC1(C(=O)NCc2ccc(-c3noc(C(F)(F)F)n3)cc2Cl)CC1` [Compound 1.79, N-[[2-chloro-4-[5-(trifluoromethyl)-1,2,4-oxadiazol-3-yl]phenyl]methyl]-1-methyl-cyclopropanecarboxamide] it is at least 80%.

As to `O=C(NCc1ccc(-c2noc(C(F)(F)F)n2)cc1)c1c(Cl)cccc1Cl` [Compound 1.42, 2,6-dichloro-N-[[4-[5-(trifluoromethyl)-1,2,4-oxadiazol-3-yl]phenyl]methyl]benzamide], the pest or weed control at 200 ppm in experiment [1] is at least 80%. `CC1(C(=O)NCc2ccc(-c3noc(C(F)(F)F)n3)cc2Cl)COC1` [Compound 1.84, N-[[2-chloro-4-[5-(trifluoromethyl)-1,2,4-oxadiazol-3-yl]phenyl]methyl]-3-methyl-oxetane-3-carboxamide]: the pest or weed control at 200 ppm in experiment [1] was at least 80%. Besides, the inhibition of growth at 20 ppm in experiment [2] is at least 80%.

The values above are taken from patent US20180368410A1, “MICROBIOCIDAL OXADIAZOLE DERIVATIVES” (SYNGENTA PARTICIPATIONS AG, priority 2015, published 2018).
